Where no end group is shown, it is not given here.
T1: mouse Sin3A PAH2 (residues 295-385) (mouse, UniProt Q60520 295-385)
T1 construct: Sin3A, mouse, paired amphipathic helix 2 (PAH2) domain, residues 295-385
T1 sequence (looked up): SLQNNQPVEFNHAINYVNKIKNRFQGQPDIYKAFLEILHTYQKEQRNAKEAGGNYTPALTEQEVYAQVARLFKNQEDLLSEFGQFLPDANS

B1: FITC-labeled Mad1 peptide (sequence 6-21 of the Mad1 protein) (peptide)
peptide: RMNIQMLLEAADYLER
modifications: also: FITC label, position not given here
notes: Mad1 protein, residues 6-21; where the FITC is attached may be told there; source: synthetic peptide (solid support, Fmoc/t-Bu strategy)
B2: PAH2: mouse Sin3A PAH2 (residues 295–385) (protein)
chain: T1 sequence (looked up)
B3: SAP25 peptide (sequence 171-186 of the SAP25 protein) (peptide)
peptide: AEMIALAGLLQMSQGE
notes: SAP25 protein, residues 171-186; source: synthetic peptide (solid support, Fmoc/t-Bu strategy)
B4: mouse Sin3A PAH1 (residues 114-195) (domain or fragment, UniProt Q60520 114-195, looked up)
chain: GQQQFQRLKVEDALSYLDQVKLQFGSQPQVYNDFLDIMKEFKSQSIDTPGVISRVSQLFKGHPDLIMGFNTFLPPGYKIEVQ
notes: Sin3A, mouse, paired amphipathic helix 1 (PAH1) domain, residues 114-195
B5: GST-REST, mouse REST (residues 31-120) (domain or fragment, UniProt Q8VIG1 31-120, looked up)
chain: YDLHELSKAELAAPQLIMLANVALTGEASGSCCDYLVGEERQMAELMPVGDNHFSESEGEGLEESADLKGLENMELGSLELSAVEPQPVF
notes: RE1 silencing transcription factor (REST), mouse, residues 31-120
B6: FITC-labeled SAP25 peptide (sequence 171-186 of the SAP25 protein) (peptide)
peptide: AEMIALAGLLQMSQGE
modifications: also: FITC label, position not given here
notes: SAP25 protein, residues 171-186; where the FITC is attached may be told there; source: synthetic peptide (solid support, Fmoc/t-Bu strategy)
B7: Mad1 peptide (sequence 6-21 of the Mad1 protein) (peptide)
peptide: RMNIQMLLEAADYLER
notes: Mad1 protein, residues 6-21; source: synthetic peptide (solid support, Fmoc/t-Bu strategy)

Tests used:
Shh signaling pathway = assay: Signaling pathway study, Shh pathway inhibitor in Sin3A knockdown P19 cells; format: cell-based, mouse; conditions: 30 μM Cur61414, 10 days; Tuj1 immunocytochemistry, western blot, RT-PCR; at least three experiments
Procedure: Figure 2 Signaling pathways associated with Sin3A knockdown-induced neurogenesis in P19 cells. (a–c) Sin3A knockdown P19 cells were incubated for 10 days in the absence and presence of an inhibitor for the Wnt pathway, 30 μM NSC668036 or 25 nM PFK118-310. (a) The cells were immunostained with Tuj1 antibody ([…]). (b) Expression levels of β-catenin and Tuj1 were examined by using western blot analysis. (c) Transcriptional levels of Tuj1 and NeuroD1 were examined by using RT-PCR. (d-e) Sin3A knockdown P19 cells were incubated for 10 days in the absence and presence of an inhibitor for the Shh pathway, 30 μM Cur61414. (d) The cells were immunostained with Tuj1 antibody ([…]). (e) The expression level of Tuj1 was examined by using western blot and (f) RT-PCR analyses. All experiments were conducted at least three times.
SMART™ BCA Protein Assay Kit (iNtRON Biot echnology). […]
Sin3A and Sin3B knockdown P19 cells were incubated for 10 days without any treatment. mRNA samples were isolated using an mRNA extraction kit (iNtRON Biotechnology, Inc.) according to the manufacture’s protocol. Samples were analyzed in duplicates on the GeneChip® Mouse Gene 2.0 ST Array (Affymetrix). […]

smoothened (SMO) = test system: smoothened (SMO); parameters: method as in PMID 12679522; conditions: Shh signaling pathway; ref [30]; cited from earlier work
Wnt/β-catenin pathway = assay: Signaling pathway study, Wnt/β-catenin pathway inhibitors in Sin3A knockdown P19 cells; format: cell-based, mouse; conditions: for transcriptional level of NeuroD1 (in words): RT-PCR; for neurogenesis inducing capability of Sin3A-silenced cells (in words) / translational level of β-catenin (in words): versus untreated cells; for neurogenesis inducing capability of Sin3A-silenced cells (in words): at least three experiments; for translational level of β-catenin (in words): western blot
[1] = test system: PDZ domain of Dishevelled (Dvl/Dsh) protein; conditions: upstream inhibitor for the Wnt/β-catenin pathway; ref [28]; cited from earlier work
[2] = test system: complex between Tcf4 and β-catenin; conditions: downstream inhibitor for the Wnt/β-catenin pathway; no reference given; cited from earlier work
P19 cells = assay: Astrocyte differentiation of P19 cells (GFAP and S100); format: cell-based, mouse; conditions: 1 μM retinoic acid, 10 days, untransfected P19 cells; Tuj1, GFAP, S100 immunocytochemistry
[3] = target: T1, mouse Sin3A PAH2 (residues 295-385); assay: fluorescence polarisation; FITC-labeled Mad1 and SAP25 peptides incubated separately with various concentrations of PAH1 and PAH2; conditions: both partners purified
[4] = test system: mouse REST (residues 31–120); assay: ELISA binding of Sin3A PAH1 and PAH2 domains to REST; conditions: wells coated with PAH1 or PAH2 (1 μg/mL), GST-REST 0-2 μg/mL, 2 h, mean ± s.d., n = 3
[5] = target: B4; assay: ELISA; competition: PAH1 or PAH2 (1 ug/mL) coated wells pre-incubated 2 h with various concentrations of SAP25 or Mad1 peptide, then GST-REST (2 ug/mL) for 2 h; detected with anti-GST antibody and HRP conjugated secondary antibody; conditions: both partners purified
[6] = target: B5; assay: ELISA; Sin3A PAH1 and PAH2 with mouse REST (residues 31-120); who was coated is not told for this experiment; conditions: both partners purified
[7] = target: T1, mouse Sin3A PAH2 (residues 295-385); assay: as above; conditions: both partners purified
[8] = target: B4; assay: fluorescence polarisation; FITC-labeled Mad1 and SAP25 peptides incubated separately with various concentrations of PAH1 and PAH2; conditions: both partners purified
[9] = target: T1, mouse Sin3A PAH2 (residues 295-385); assay: ELISA; competition: PAH1 or PAH2 (1 ug/mL) coated wells pre-incubated 2 h with various concentrations of SAP25 or Mad1 peptide, then GST-REST (2 ug/mL) for 2 h; detected with anti-GST antibody and HRP conjugated secondary antibody; conditions: both partners purified

COc1cccc(CN(C(=O)CC(C)(C)C)[C@H]2C[C@@H](C(=O)N3CCNCC3)N(Cc3ccc4c(c3)OCO4)C2)c1 [Cur61414]
neurogenesis-inducing ability of Sin3A-knockdown cells (in words) (Shh signaling pathway): greatly reduced | inhibition of smoothened (in words) (smoothened (SMO)): a known inhibitor of smoothened (SMO)

CC(NC(=O)C(OC(=O)C(C)NC(=O)OC(C)(C)C)C(C)C)C(=O)OC(C(=O)O)C(C)C (stereo not shown) [NSC668036]
transcriptional level of NeuroD1 (in words) (Wnt/β-catenin pathway; 30 μM NSC668036, 10 days): greatly reduced | neurogenesis inducing capability of Sin3A-silenced cells (in words) (Wnt/β-catenin pathway; 30 μM NSC668036, 10 days): attenuated | translational level of β-catenin (in words) (Wnt/β-catenin pathway; 30 μM NSC668036, 10 days): markedly decreased | binding to PDZ domain and inhibition of Dvl-Frizzled interaction (in words) [1]: binds to the PDZ domain of Dishevelled (Dvl/Dsh) protein, a key component of Wnt signaling, and inhibits its interaction with Frizzled (Fzd)

Cn1ncnc2c(=O)n(C)c(=O)nc1-2 [PKF118-310]
transcriptional level of NeuroD1 (in words) (Wnt/β-catenin pathway; 25 nM PKF118-310, 10 days): greatly reduced | neurogenesis inducing capability of Sin3A-silenced cells (in words) (Wnt/β-catenin pathway; 25 nM PKF118-310, 10 days): attenuated | translational level of β-catenin (in words) (Wnt/β-catenin pathway; 25 nM PKF118-310, 10 days): markedly decreased | inhibition of Tcf4/β-catenin complex formation (in words) [2]: blocks the formation of the complex between Tcf4 and β-catenin

CC1=C(/C=C/C(C)=C/C=C/C(C)=C/C(=O)O)C(C)(C)CCC1 [RA, retinoic acid]
neurogenesis and astrogenesis of RA-treated P19 cells (in words) (P19 cells): underwent neurogenesis and astrogenesis

B1
binding result [3]: binds

B2
binding to REST (in words) [4]: bind with near equal strengths to REST

B3
binding result [5]: binds

B4
binding to REST (in words) [4]: bind with near equal strengths to REST | binding result [6]: binds

B5
binding result [7]: binds

B6
binding result [8]: binds

B7
binding result [9]: binds
